Source: the Deep4Chem optical property database

Experiment: solvent given as SMILES
[1] = in O=P(c1ccccc1)(c1ccccc1)c1ccccc1Oc1ccccc1P(=O)(c1ccccc1)c1ccccc1

Cn1cc(-c2nc3ccccc3nc2/C=C/N2CCCC2)c2ccccc21
fluorescence lifetime (in C1CCCCC1): 1.27 ns
fluorescence lifetime (in C1CCOC1): 5.12 ns
fluorescence lifetime (in CC#N): 6.75 ns
fluorescence lifetime (in CC(C)=O): 6.42 ns
fluorescence lifetime (in CCO): 0.75 ns
fluorescence lifetime (in CO): 0.19 ns
fluorescence lifetime (in CS(C)=O): 7.19 ns
fluorescence lifetime (in Cc1ccccc1): 3.62 ns
fluorescence lifetime (in ClCCl): 7.01 ns

Nc1ccc2[nH]ncc2c1
fluorescence lifetime (in C1CCCCC1): 4.9 ns
fluorescence lifetime (in CC#N): 4.7 ns
fluorescence lifetime (in CO): 6.4 ns
fluorescence lifetime (in O): 12.5 ns

Cc1ccc(C2=Cc3c4ccccc4c4ccccc4[n+]3[B-](F)(F)O2)cc1
fluorescence lifetime (in ClC(Cl)Cl): 0.706 ns

c1ccc(-n2c(-c3ccc(N(c4ccc(-c5ccc(N(c6ccc(-c7nc8c9ccccc9c9ccccc9c8n7-c7ccccc7)cc6)c6ccc(-c7nc8c9ccccc9c9ccccc9c8n7-c7ccccc7)cc6)cc5)cc4)c4ccc(-c5nc6c7ccccc7c7ccccc7c6n5-c5ccccc5)cc4)cc3)nc3c4ccccc4c4ccccc4c32)cc1
fluorescence lifetime (in ClCCl): 1.68 ns

O=C1c2ccccc2-c2ccc(N3CCN(c4ccccc4)CC3)c3cccc1c23
fluorescence lifetime (in C1CCCCC1): 7.85 ns
fluorescence lifetime (in C1CCOC1): 2.59 ns
fluorescence lifetime (in C1COCCO1): 8.98 ns
fluorescence lifetime (in CC1COC(=O)O1): 0.09 ns
fluorescence lifetime (in CC#N): 0.03 ns
fluorescence lifetime (in CC(C)=O): 0.09 ns
fluorescence lifetime (in CCCCCCCCO): 0.29 ns
fluorescence lifetime (in CCCCCO): 0.22 ns
fluorescence lifetime (in CCCCO): 0.16 ns
fluorescence lifetime (in CCCO): 0.22 ns
fluorescence lifetime (in CCO): 0.07 ns
fluorescence lifetime (in CCOC(C)=O): 2 ns
fluorescence lifetime (in CN(C)C=O): 0.06 ns
fluorescence lifetime (in CO): 0.03 ns
fluorescence lifetime (in CS(C)=O): 0.06 ns
fluorescence lifetime (in Cc1ccccc1): 9.06 ns
fluorescence lifetime (in ClC(Cl)Cl): 8.88 ns

N#Cc1ccc(N(c2ccccc2)c2ccc3ccc4c(N(c5ccccc5)c5ccc(C#N)cc5)ccc5ccc2c3c54)cc1
fluorescence lifetime (in ClCCl): 2.7 ns

c1ccc2c(c1)CCc1ccccc1N2c1c2ccccc2c(N2c3ccccc3CCc3ccccc32)c2ccccc12
fluorescence lifetime (in Cc1ccccc1): 34 ns

COc1ccc(C#Cc2ccc(C#N)cc2)cc1OC
fluorescence lifetime (in C1COCCO1): 1.09 ns
fluorescence lifetime (in CC#N): 2.03 ns
fluorescence lifetime (in CCCCCC): 0.37 ns
fluorescence lifetime (in CCCCCCC): 0.38 ns
fluorescence lifetime (in CCCO): 0.95 ns
fluorescence lifetime (in CCOC(C)=O): 1 ns
fluorescence lifetime (in CS(C)=O): 2.51 ns
fluorescence lifetime (in ClC(Cl)Cl): 0.89 ns
fluorescence lifetime (in ClCCl): 1.25 ns

[NH3+]c1cc([NH3+])cc(-c2[nH+]c3ccccc3s2)c1
fluorescence lifetime (in O): 0.52 ns

Cn1nc(-c2ccccc2)c2nc3cc(F)ccc3nc21
fluorescence lifetime (in C1CCCCC1): 23 ns
fluorescence lifetime (in C1CCOC1): 23 ns
fluorescence lifetime (in CC#N): 10.1 ns

CCn1c2ccccc2c2cc(-c3cc(-c4ccc5c(c4)c4ccccc4n5CC)nc(-c4ccc(OC)cc4)n3)ccc21
fluorescence lifetime (in C1CCOC1): 1.63 ns

Cc1ccc(-c2ccc(/C=C/c3ccc(F)cc3)cn2)nc1
fluorescence lifetime (in CC#N): 0.99 ns

COc1cc(OC)c2c(c1)c1cc3oc(=O)cc(C)c3cc1c1cc(OC)cc(OC)c12
fluorescence lifetime (in ClC(Cl)Cl): 7.5 ns

O=c1oc2ccc3ccc(O)cc3c2nc1-c1ccccc1
fluorescence lifetime (in c1ccccc1): 4.8 ns

Cc1cccc2nc3[nH]c(=O)[nH]c(=O)c3nc12
fluorescence lifetime (in CC#N): 0.9 ns

Cc1cc(=O)oc2cc(/[NH+]=C/C=C3/C=C(C(=O)O)NC(C(=O)O)C3)ccc12 (stereo unspecified)
fluorescence lifetime (in O): 0.038 ns

Cc1c(C)c(N2c3ccccc3Oc3ccccc32)c(C)c(C)c1B(c1c(C)c(C)c(N2c3ccccc3Oc3ccccc32)c(C)c1C)c1c(C)c(C)c(N2c3ccccc3Oc3ccccc32)c(C)c1C
fluorescence lifetime (in CC(C)(C)c1ccc(-n2c3ccc([Si](c4ccccc4)(c4ccccc4)c4ccccc4)cc3c3cc([Si](c4ccccc4)(c4ccccc4)c4ccccc4)ccc32)cc1): 1.3 ns

c1ccc([B-]2(c3ccccc3)Oc3ccc4ccccc4c3-c3c4ccccc4nc[n+]32)cc1
fluorescence lifetime (in Cc1ccccc1): 9.59 ns

N#Cc1nc2c3ccc(-n4c5ccccc5c5ccccc54)cc3c3cc(-n4c5ccccc5c5ccccc54)ccc3c2nc1C#N
fluorescence lifetime (in O=P(c1ccccc1)(c1ccccc1)c1cccc(-c2cc(-n3c4ccccc4c4ccccc43)cc(-n3c4ccccc4c4ccccc43)c2)n1): 29.5 ns

COc1ccc(-c2c3ccccc3c(-c3ccc(OC)cc3)c3ccccc23)cc1
fluorescence lifetime (in ClCCl): 4.4 ns

CCN(CC)c1ccc(-c2nc3c(nc2-c2ccc(B(c4c(C)cc(C)cc4C)c4c(C)cc(C)cc4C)cc2)c2ccccc2n3C)cc1
fluorescence lifetime (in C1CCOC1): 2.33 ns

O=c1cccc2n1C[C@@H]1CNC[C@H]2C1
fluorescence lifetime (in CC#N): 0.289 ns

CC(C)[Si](C#Cc1c2ccccc2c(C#C[Si](C(C)C)(C(C)C)C(C)C)c2nc3cc4c(cc3nc12)C1c2ccccc2C4c2ccccc21)(C(C)C)C(C)C
fluorescence lifetime (in CCCCCC): 13.3 ns
fluorescence lifetime (in ClCCl): 18.3 ns

COc1ccc(-c2csc(/C(C#N)=C/c3ccc(Cl)cc3)n2)cc1
fluorescence lifetime (in CC#N): 3.61 ns

CCOC(=O)/N=c1/oc2cc(N(CC)CC)ccc2cc1C#N
fluorescence lifetime (in ClCCl): 3.6 ns

F[B-]1(F)n2c(-c3cccs3)cc(-c3cccs3)c2N=C2C(c3cccs3)=CC(c3cccs3)=[N+]21
fluorescence lifetime (in C1CCOC1): 1.95 ns
fluorescence lifetime (in CC#N): 2.23 ns
fluorescence lifetime (in CS(C)=O): 2.31 ns
fluorescence lifetime (in Cc1ccccc1): 2.21 ns
fluorescence lifetime (in ClCCl): 2.36 ns

COc1ccc(C2=C3C=c4c(oc5cc6c(cc45)[C@H]4CC[C@]5(C)C(=O)CC[C@H]5[C@@H]4CC6)=[N+]3[B-](F)(F)n3c2cc2c4cc5c(cc4oc23)CC[C@@H]2[C@@H]5CC[C@]3(C)C(=O)CC[C@@H]23)cc1
fluorescence lifetime (in CCOC(C)=O): 3.94 ns
fluorescence lifetime (in CCOCC): 4.04 ns
fluorescence lifetime (in CO): 3.71 ns

FC(F)(F)c1ccc(-c2ccc(-c3cc(-c4ccccn4)nc(-c4ccccn4)c3)cc2)cc1
fluorescence lifetime (in ClCCl): 1.48 ns

COc1cc2c(cc1-c1ccc([N+](=O)[O-])cc1)Cc1c3c(c4c(c1-2)-c1cc(OC)c(-c2ccc([N+](=O)[O-])cc2)cc1C4)C(=O)N(CCC(C)C)C3=O
fluorescence lifetime (in C1CCOC1): 1.43 ns

Cc1ccccc1-c1nc(-c2ccccc2C)nc(-c2ccc(N3c4ccccc4C4(c5ccccc5-c5ccccc54)c4ccccc43)cc2C)n1
fluorescence lifetime [1]: 24 ns

c1ccc(N(c2ccccc2)c2ccc(-c3ccc(-c4cc(-c5ccccn5)nc(-c5ccccn5)c4)cc3)cc2)cc1
fluorescence lifetime (in ClCCl): 2.68 ns

CCCCCCCCCCCCOc1cc2cc(N(C)C)ccc2cc1C=C(C#N)C#N
fluorescence lifetime (in CS(C)=O): 2.2 ns

COc1ccc2cc(C#N)c(=N)oc2c1
fluorescence lifetime (in ClCCl): 2.5 ns

CC1(C)c2ccccc2N(c2ccc(-c3cccc(C#N)c3)cc2)c2ccccc21
fluorescence lifetime (in N#Cc1ccc2c(c1)c1ccccc1n2-c1cccc(-n2c3ccccc3c3ccccc32)c1): 6.53 ns

C[Si](C)(C)c1cc2c(cc3ccc4cccc5ccc2c3c45)[nH]1
fluorescence lifetime (in CCOC(C)=O): 2.41 ns

CCC1=C(C)C2=Cc3cc(I)cn3[B-](F)(F)[N+]2=C1C
fluorescence lifetime (in C1CCCCC1): 0.489 ns
fluorescence lifetime (in CC(C)=O): 0.317 ns
fluorescence lifetime (in CCO): 0.349 ns
fluorescence lifetime (in CCOC(C)=O): 0.362 ns
fluorescence lifetime (in CO): 0.324 ns
fluorescence lifetime (in OCC(F)(F)F): 0.308 ns

CC(C)(C)c1ccc2c(c1)c1cc(C(C)(C)C)ccc1n2-c1ccc(C#Cc2ccc3c4ccc(C#Cc5ccc(/C=C(/C#N)C(=O)O)cc5)cc4n(-c4ccc(C(F)(F)F)cc4)c3c2)cc1
fluorescence lifetime (in ClCCl): 1.27 ns

CN(C)c1ccc(/C=C/C=C/c2ccc(C#N)cc2)cc1
fluorescence lifetime (in C1CCOC1): 0.35 ns
fluorescence lifetime (in CC#N): 0.56 ns
fluorescence lifetime (in CCCCCC): 0.28 ns
fluorescence lifetime (in CCCCOCCCC): 0.28 ns
fluorescence lifetime (in CCO): 0.51 ns
fluorescence lifetime (in CCOCC): 0.32 ns

CCN(CC)c1ccc(/C=N/Nc2ccc(C#N)cc2)c(O)c1
fluorescence lifetime (in CO): 1.63 ns

N#Cc1c(-n2c3ccccc3c3ccccc32)cccc1-n1c2ccccc2c2ccccc21
fluorescence lifetime (in Cc1ccccc1): 2.6 ns
fluorescence lifetime [1]: 4 ns

c1ccc2c(-c3cc(-c4nccs4)nc(-c4nccs4)c3)c3ccccc3cc2c1
fluorescence lifetime (in CC#N): 2.32 ns
fluorescence lifetime (in CCCCCC): 3.31 ns
fluorescence lifetime (in CO): 2.5 ns
fluorescence lifetime (in ClC(Cl)Cl): 2.34 ns

CCCCCCC(CCCCCC)n1c(=O)c2c3ccc4cccc5c6cccc7ccc(c2c1=O)c(c76)c3c45
fluorescence lifetime (in C1CCCCC1): 10.5 ns
fluorescence lifetime (in CC#N): 7.5 ns
fluorescence lifetime (in CC(C)=O): 7.8 ns
fluorescence lifetime (in CCCCCC): 9.5 ns
fluorescence lifetime (in CCO): 6.5 ns
fluorescence lifetime (in CCOCC): 9.6 ns
fluorescence lifetime (in CS(C)=O): 7.7 ns
fluorescence lifetime (in Cc1ccccc1): 9.2 ns
fluorescence lifetime (in ClC(Cl)(Cl)Cl): 8.7 ns
fluorescence lifetime (in ClC(Cl)Cl): 6.7 ns

Cc1cc(C)c(B(c2cc3ccc4cccc5ccc(c2)c3c45)c2c(C)cc(C)cc2C)c(C)c1
fluorescence lifetime (in Cc1ccccc1): 49 ns

CC(C)(C)c1ccc(-c2c3c(c(-c4ccc(C(C)(C)C)cc4)c4cc5ccccc5cc24)Cc2c(c(-c4ccc(C(C)(C)C)cc4)c4cc5ccccc5cc4c2-c2ccc(C(C)(C)C)cc2)C3)cc1
fluorescence lifetime (in ClCCl): 2.35 ns

CCOc1ccc(/C=C/C=C/C=C/c2ccc([N+](=O)[O-])cc2)cc1
fluorescence lifetime (in Cc1ccccc1): 1.5 ns

CC(C)(C)c1ccc2c(c1)c1cc(C(C)(C)C)ccc1n2-c1ccc(C#Cc2ccc(C=C(C#N)C#N)cc2)cc1
fluorescence lifetime (in ClCCl): 4.2 ns

CCCn1c2cccc3oc4cccc5oc6cccc1c6[c+](c45)c32
fluorescence lifetime (in CC#N): 23.2 ns
fluorescence lifetime (in CO): 20.7 ns
fluorescence lifetime (in ClCCl): 21.8 ns
fluorescence lifetime (in OCC(O)CO): 19.7 ns

F[B-]1(F)OC(c2ccccc2)=Cc2ccc3ccccc3[n+]21
fluorescence lifetime (in ClC(Cl)Cl): 1.29 ns

C[Si](C)(C)C#CC1=CC2=c3cc(C#C[Si](C)(C)C)c4nc(C(F)(F)C(F)(F)C(F)(F)F)nc5c(C#C[Si](C)(C)C)cc(c3c54)C3=CC(C#C[Si](C)(C)C)=C4N=C(C(F)(F)C(F)(F)C(F)(F)F)N=C1C4C32 (stereo unspecified)
fluorescence lifetime (in C1CCOC1): 2.1 ns

CCN(CC)c1ccc2cc(-c3ccc(-c4ccc(-c5cc6ccccc6oc5=O)cc4)cc3)c(=O)oc2c1
fluorescence lifetime (in ClCCl): 9.88 ns

CCN1C(=O)C(C2C(=O)c3c4ccccc4cc4cc5ccccc5c2c34)SC1=S (stereo unspecified)
fluorescence lifetime (in C1CCOC1): 11.8 ns
fluorescence lifetime (in CC#N): 7.8 ns
fluorescence lifetime (in CCCCCC): 12.8 ns
fluorescence lifetime (in Cc1ccccc1): 13.2 ns
fluorescence lifetime (in ClCCl): 10.4 ns

COc1cccc(OC)c1C1=C2C(C)=CC(C)=[N+]2[B-](F)(F)n2c(C)cc(C)c21
fluorescence lifetime (in C1CCOC1): 5.77 ns
fluorescence lifetime (in CCCCCC): 6.26 ns

N#CC(C#N)=Cc1ccc(-c2ccc(N(c3ccccc3)c3ccccc3)cc2)o1
fluorescence lifetime (in ClC(Cl)Cl): 2.73 ns

C(=C\c1c2ccccc2cc2ccccc12)/c1cccc2ccccc12
fluorescence lifetime (in CC1CCCCC1): 5 ns
fluorescence lifetime (in CC#N): 4.5 ns

COc1ccc(O)c(-c2nc(C)c3n2CCCC3)c1
fluorescence lifetime (in ClCCl): 1.12 ns
